Laboratory results reported in US10610522B2, “Methods for retreating irritable bowel syndrome (IBS)” (Salix Pharmaceuticals, Inc., priority 2014, dated 2020).
Like-named read-outs stand apart in the source and are kept apart here.

What was measured:
IBS = conditions: cited from earlier work
cytochrome P450 2D6 = cytochrome P450 2D6 (Homo sapiens, UniProt P10635); experiment: In vitro cytochrome P450 inhibition; assay type: biochemical; conditions: 2 to 200 ng/mL
IBS-D [1] = experiment: TARGET 3: repeat treatment with rifaximin 550 mg TID in IBS-D (open-label, double-blind first and second repeat treatment); assay type: in vivo, human
Excerpt: This study consists of several treatment phases, and is initiated with a placebo run-in treatment during the Screening/Treatment 1 Phase. The placebo run-in is included in the design to disqualify subjects from enrollment if they no longer meet IBS symptom related entry criteria at the end of the Screening/Treatment 1 Phase (e.g., spontaneous improvement). […] Subjects who achieve treatment success in both IBS-related abdominal pain and stool consistency during at least two of the four week follow-up period are classified as responders and enter a treatment free Maintenance Phase 1. Non-responders are withdrawn from the study to provide an enriched population of subjects who respond to treatment with rifaximin. The treatment free Maintenance Phase 1 is variable in time (up to 18 weeks in total) and depends upon recurrence (e.g., absence of treatment success in both IBS related abdominal pain or stool consistency).
The subjects remain blinded to placebo received during Treatment 1. Subjects with recurrence enter the DBR Treatment 3 Phase.
Subjects are considered to have met recurrence criteria or have “relapsed” when they experience the recurrence of abdominal pain OR stool consistency for at least 3 weeks during a 4-week follow-up period. […] Therefore a recurrence of both symptoms is not required to define a “relapse”.
The study was a multi-center, randomized, double-blind, placebo-controlled trial in adult subjects with non-C IBS. The study duration was up to 51 weeks, with approximately 600 patients.
The Treatment 1 or Screening phase is the 7-13 days prior to study Day 1.
The proportion of subjects who were responders to repeat treatment in both IBS-related abdominal pain and stool consistency were evaluated during the 4 week treatment-free follow-up (Primary Evaluation Period, PEP) in the DBR (Double Blind Repeat) of the Treatment 3 Phase.
In this analysis, when a weekly response was absent for either the abdominal pain or stool consistency component for at least 3 weeks during a rolling consecutive 4-week assessment period; the subject is considered to have recurrence.
Further, the proportion of subjects who were responders to repeat treatment in both IBS-related abdominal pain and stool consistency during the PEP in the DBR Treatment 3 Phase and that had no recurrence through the end of Maintenance Phase 2 were assessed.
Further, the proportion of subjects were assessed who were responders to repeat treatment for IBS-related bloating during the PEP in the DBR Treatment 3 Phase.
The intent-to-treat (ITT) population included subjects who were randomized and received at least one dose of the study drug in the Treatment 3/DBR Treatment Phase. These subjects served as the primary analysis population. An efficacy analysis was conducted on the ITT population.
Double-Blind Phase of the Study (Response type—durable and maintained): Proportion that responded to the composite FDA Endpoint of relief in both IBS-related Abdominal Pain AND Stool Consistency during the PEP in the first repeat double-blind, placebo controlled treatment phase AND continued to respond without recurrence through the end of Week 6 following the second repeat double-blind, placebo controlled treatment.
Double-Blind Repeat Treatment and follow-up (Response type—durable): Proportion that responded to the composite FDA Endpoint of relief in both IBS-related Abdominal Pain AND Stool Consistency during the PEP in the first repeat double-blind, placebo controlled treatment phase AND continued to respond without recurrence through the end of Week 12, independent of any additional treatment.
At the end of Week 6, patients were assessed for response to treatment. […]

IBS-D [2] = experiment: Adverse reactions in three phase 3 placebo-controlled IBS-D studies, rifaximin 550 mg TID; assay type: in vivo, human
Excerpt: In two studies, 624 patients received only one 14-day treatment.
(These include adverse reactions that may be attributable to the underlying disease.)
The following includes adverse reactions regardless of causal relationship to drug exposure. Gastrointestinal Disorders: Abdominal distension, abdominal tenderness, constipation, diarrhea, dyspepsia, flatulence, vomiting

rat fetuses = experiment: Developmental toxicity in pregnant rats; assay type: in vivo
cytochrome P450 1A2 = molecular target: T1, cytochrome P450 1A2 (Homo sapiens, UniProt P05177); experiment: In vitro cytochrome P450 inhibition; assay type: biochemical; conditions: 2 to 200 ng/mL
T1 sequence (P05177 1-516): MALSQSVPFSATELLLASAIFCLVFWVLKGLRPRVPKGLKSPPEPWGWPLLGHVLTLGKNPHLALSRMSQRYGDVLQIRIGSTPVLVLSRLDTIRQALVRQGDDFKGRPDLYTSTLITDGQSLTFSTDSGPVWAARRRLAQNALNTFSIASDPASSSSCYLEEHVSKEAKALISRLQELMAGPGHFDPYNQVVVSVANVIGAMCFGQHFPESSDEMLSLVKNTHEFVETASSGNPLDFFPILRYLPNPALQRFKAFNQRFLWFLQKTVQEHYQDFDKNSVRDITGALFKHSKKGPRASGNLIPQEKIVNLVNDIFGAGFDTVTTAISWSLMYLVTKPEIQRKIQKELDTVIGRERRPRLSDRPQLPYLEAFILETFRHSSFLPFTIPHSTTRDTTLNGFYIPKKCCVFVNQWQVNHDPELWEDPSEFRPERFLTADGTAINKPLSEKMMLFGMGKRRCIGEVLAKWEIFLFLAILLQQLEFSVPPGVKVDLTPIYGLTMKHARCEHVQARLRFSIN

[3] = Pimentel, et al., responders/retreated
[4] = Yang, et al, responders/retreated
[5] = TARGET 3, month following repeat treatment, Worst-Case Analysis, 550 mg TID, N = 328
[6] = 1650 mg/day, N = 952, three phase 3 placebo-controlled studies

cytochrome P450 2D6, sequence (P10635 whole entry): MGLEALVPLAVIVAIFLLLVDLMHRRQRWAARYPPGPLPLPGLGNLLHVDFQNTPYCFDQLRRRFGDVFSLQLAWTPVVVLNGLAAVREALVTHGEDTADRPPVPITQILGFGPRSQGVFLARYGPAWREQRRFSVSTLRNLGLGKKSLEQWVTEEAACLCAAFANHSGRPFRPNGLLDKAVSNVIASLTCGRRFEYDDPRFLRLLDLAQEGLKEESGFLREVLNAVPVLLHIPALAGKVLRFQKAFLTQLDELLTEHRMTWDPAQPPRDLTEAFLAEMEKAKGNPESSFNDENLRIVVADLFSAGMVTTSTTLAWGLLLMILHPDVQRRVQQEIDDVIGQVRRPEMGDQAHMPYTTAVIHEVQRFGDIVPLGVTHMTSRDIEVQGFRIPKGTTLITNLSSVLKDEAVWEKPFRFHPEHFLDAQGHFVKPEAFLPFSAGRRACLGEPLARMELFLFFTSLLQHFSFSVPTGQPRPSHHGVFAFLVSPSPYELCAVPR

**Q.** Which results are given for CO[C@H]1/C=C/O[C@@]2(C)Oc3c(C)c(O)c4c(O)c(c5c(nc6cc(C)ccn65)c4c3C2=O)NC(=O)/C(C)=C\C=C\[C@H](C)[C@H](O)[C@@H](C)[C@@H](O)[C@@H](C)[C@H](OC(C)=O)[C@@H]1C [Rifaximin, (2S,16Z,18E,20S,21S,22R,23R,24R,25S,26S,27S,28E)-5,6,21,23,25 Pentahydroxy-27-methoxy-2,4,11,16,20,22,24,26-octamethyl-2,7-(epoxypentadeca-(1,11,13)trienimino) benzofuro (4,5-e) pyrido(1,2-a) benzimidazole-1,15(2H)-dione,25-acetate]?
**A.** Initial treatment response (IBS; Jolley (~1 yr), IBS-D patients, 1200 mg/day for 10 days): 56% (25/45); Re-treatment response (at least 1) (IBS; Jolley, IBS-D patients, 2400 mg/day for 10 days): (at least 1): 54% (13/24); Complete (>90%) relief (IBS; Jolley, IBS-D patients): 11% (5/45); Complete (>90%) relief upon re-treatment (IBS; Jolley, IBS-D patients): 13% (3/24); Initial treatment response (IBS; Pimentel, et al. (>6 yr), 169 Non-C IBS patients (Rome III), 400-550 mg TID for 14 days): 75% (111/148); Re-treatment response (at least 1) (IBS; Pimentel, et al., 1 to 6 re-treatments): (at least 1): >75%; Duration of benefit (IBS; Pimentel, et al.): ~4 m; Re-treatment response, First (IBS; [3]): 54/65; Re-treatment response, Second (IBS; [3]): 38/40; Re-treatment response, Third (IBS; [3]): Third: 17/18; Initial treatment response (IBS; Weinstock (>6 yr), 99 Non-C IBS patients (Rome II), 1200-1650 mg/day for 10 days): 75% (74/99); Patients who did not require re-treatment (IBS; Weinstock): 27% did not require; Patients who maintained response for mean 1.6 y (IBS; Weinstock): 41% maintained response; Patients with only 1-2 retreatment in 2 y (IBS; Weinstock): 51% only 1-2 retreatment; Initial treatment response (IBS; Yang, et al (1.25 yr), 84 IBS patients (Rome I), 1200 mg/day for 10 days): 69% (58/84); Re-treatment response (at least 1) (IBS; Yang, et al, 1200 mg/day for 10 days): (at least 1): 100%; Re-treatment response, First (IBS; [4]): 16/16; Re-treatment response, Second (IBS; [4]): 4/4; Inhibition of cytochrome P450 2D6 (cytochrome P450 2D6): does not inhibit; Median time to recurrence of IBS-related symptoms after initial 14-day treatment (IBS-D [1]; TARGET 3): 8 weeks; Patients who responded to initial open-label treatment (abdominal pain and/or stool consistency) (IBS-D [1]; TARGET 3, 550 mg TID 14 d, 1074 of 2579 patients): 41.6%; Monthly responders for abdominal pain and stool consistency after first repeat treatment (IBS-D [1]; TARGET 3, 4 weeks following first repeat treatment, 550 mg TID): 33%; Abdominal Pain Responders: % (IBS-D [1]; [5]): (51) %; Abdominal Pain Responders: n (IBS-D [1]; [5]): 166; Abdominal Pain and Stool Consistency Responders: % (IBS-D [1]; [5]): (33) %; Abdominal Pain and Stool Consistency Responders: n (IBS-D [1]; [5]): 107; Stool Consistency Responders: % (IBS-D [1]; [5]): (42) %; Stool Consistency Responders: n (IBS-D [1]; [5]): 138; Sustained response for abdominal pain and stool consistency (IBS-D [1]; TARGET 3, no recurrence 10 weeks after repeat treatment): 17%; Prevention of recurrence of abdominal pain and stool consistency responders (IBS-D [1]; TARGET 3, no recurrence through second repeat treatment phase (20 weeks)): 13%; Responders without recurrence of abdominal pain or stool consistency symptoms for 22 weeks following initial treatment (IBS-D [1]; TARGET 3, number of patients): 382; IBS-Related Abdominal Pain Responders (IBS-D [1]; Weeks 3 through 6, Second Repeat Treatment Phase, LOCF Analysis): (52.5%); IBS-Related Abdominal Pain and Stool Consistency Responders (IBS-D [1]; Weeks 3 to 6, Double Blind First Repeat Treatment Phase, LOCF Analysis, ITT): 116/328; Adverse reaction: ALT increased (IBS-D [1]; during repeat treatment): 2%; Adverse reaction: nausea (IBS-D [1]; during repeat treatment): 2%; Adverse event rate of repeat treatments (IBS-D [1]; repeat treatments 550 mg TID): generally below that of placebo; Effects on pathogen emergence, pathogen susceptibility, microbial population in stool or skin swab samples (IBS-D [1]; up to 3 treatment cycles): no evidence of significant effects; Most common adverse reactions in IBS-D (≥2%) (IBS-D [2]; 550 mg TID): nausea and abdominal pain; Adverse reaction Abdominal Pain: % of Patients (IBS-D [2]; [6]): 2%; Adverse reaction Abdominal Pain: Number of Patients (IBS-D [2]; [6]): 18; Adverse reaction Nausea: % of Patients (IBS-D [2]; [6]): 2%; Adverse reaction Nausea: Number of Patients (IBS-D [2]; [6]): 22; Fetal malformations (rat fetuses; pregnant rats, dose levels that caused reduced body weight gain): eye malformations; Post-natal developmental effects in rat pups (rat fetuses; pregnant/lactating rats dosed from gestation to Day 20 post-partum, highest dose): not observed; Inhibition of cytochrome P450 1A2 (cytochrome P450 1A2): does not inhibit
